Laboratory results as given in patent US4691017A, “2-hydroxy-and 2-halo-ethylthiopyridine intermediates for preparing antiulcer compounds” (Richter Gedeon Vegyeszeti Gyar Rt., priority 1984, dated 1987).
Counter-ions that a name gives are not always drawn. Like-named read-outs stand apart in the source and are kept apart here.

Assays:
[1] = tested on: Gastric necrosis (gastric oedema and haemorrhagic injury); assay: Gastric necrosis induced by acidic ethanol (cytoprotective activity); format: in vivo, Female RG-Wistar rats; conditions: for ED50: Rattus norvegicus, po, 1 h, acidic ethanol, p.o.
Protocol: Water was given ad libitum. […] One hour later the animals were killed by overdosing with ether. Stomachs were removed and opened along the major curvature. After cleaning the wet weight of the stomachs was determined, and the difference between the wet weight obtained and the wet weight of the stomachs of untreated (control) animals was calculated, in order to determine the degree of gastric oedema. The stomachs were then dried and the gastic lesions were observed visually. Lengths of lesions were measured in millimeters. (Derelanko and Long, Proc. Soc. Exp. Biol. and Med. 166, 394 (1981)), and the length of the average lesions per stomach was given. Degree of cytoprotection was expressed in % related to the control. The statistical evaluation of the results was carried out by the Student test.

Gastric acid secretion = Gastric acid secretion inhibiting activity on Shay rats; format: in vivo, Female H-Wistar rats
Protocol: Gastric acid secretion inhibiting activity on Shay rats (Gastroenterology, 5, 43-46 (1945)
Female H-Wistar rats weighing 120-150 g each were fasted for 24 hours. Water was added ad libitum. The pylorus of the animals was ligated under light ether narcosis. The test drugs were administered during the operation, partially orally, partially intraperitoneally. 4 hours after treatment the animals were killed by an overdose of ether. The stomach was excised and cut along the large curvature. The volume and the pH of the contents were determined and in each case the HCl production was determined by titration.

Intestinal ulcer = assay: Indomethacin-induced intestinal ulceration (inflation technique); format: in vivo, Female RG-Wistar rats
Antral ulcer = assay: Indomethacin-induced antral ulceration; format: in vivo, Female RG-Wistar rats
Protocol: Indomethacin-induced antral and intestinal ulceration
Female RG-Wistar rats weighing 120 to 150 g. each were fasted for 24 hours. Water was added ad libitum. The animals were then given access to food for one hour, and 30 minutes after the administration of the test compounds a 15-mg./kg. oral dose of indomethacin was administered. 24 hours after indomethacin treatment the animals were killed by overdose of ether. Stomachs and the entire intestine were removed, the stomachs were opened along the main curvature, and the total ulcerated area (ulceration index, mm^2) was determined.

[2] = tested on: Aspirin-induced gastric ulceration; assay: Inhibition of aspirin-induced gastric ulceration; format: in vivo, Female H. Wistar rats
Protocol: Inhibition of aspirin-induced gastric ulceration
Female H. Wistar rats weighing 120 to 150 g each were fasted for 24 hours. Water was given ad libitum. The stomach ulcer was induced by oral administration of aspirin in a dose of 100 mg./kg. (in Tween 80 suspension). The test was given simultaneously with the administration of aspirin, orally. The animals were killed by overdose if ether, 4 hours after treatment. The stomach was excised and cut along the large curvature. The red-brownish erosions on the glandular surface were counted. When evaluating the test results, the number of ulcers per stomach and its proportion to the number of ulcers found in the stomachs of control animals (inhibition of ulceration) were determined.

[3] = read-out: Gastric oedema inhibition ED50
[4] = read-out: Haemorrhagic injury inhibition ED50
[5] = indomethacin 15 mg./kg. p.o. with 5 mg./kg. p.o. test compound
[6] = indomethacin 15 mg./kg. p.o. with 25 mg./kg. p.o. test compound
[7] = indomethacin 15 mg./kg. p.o. with 25 mg./kg. p.o. test compound, N 20
[8] = indomethacin 15 mg./kg. p.o. with 50 mg./kg. p.o. test compound

Question: What does the source list for `CC(=O)N(CCSc1ncccc1C(=O)c1ccccc1)C(C)=O` [B, 3-benzoyl-2-{[2-(N,N-diacetylamino)-ethyl]-thio}-pyridine]?
Answer: ED50 [1, 3]: 1 mg/kg; ED50 [1, 4]: 2 mg/kg

Question: With `NCCSc1ncccc1C(=O)c1ccc(Cl)cc1` [C, 2-[(2-aminoethyl)-thio]-3-(p-chlorobenzoyl)-pyridine.HCl] as the compound, how does the ED50 [1, 3] read?
Answer: 10 mg/kg

Question: And the ED50 [1, 4]?
Answer: 15 mg/kg

Question: What does the source list for `NCCSc1ncccc1C(=O)c1ccccc1` [Compound A, 2-[(2-aminoethyl)-thio]-3-benzoyl-pyridine.HCl]?
Answer: Haemorrhagic injury ([1]; 0.05 mg./kg. p.o.): 48 ± 19 mm; Haemorrhagic injury inhibition ([1]; 0.05 mg./kg. p.o.): 45%; Oedema inhibition ([1]; 0.05 mg./kg. p.o.): 19%; Oedema ([1]; 0.05 mg./kg. p.o., N 8): 307 ± 42 mg; Haemorrhagic injury ([1]; 0.1 mg./kg. p.o.): 38 ± 18 mm; Oedema ([1]; 0.1 mg./kg. p.o., N 10): 209 ± 51 mg; Haemorrhagic injury inhibition ([1]; 0.1 mg./kg. p.o., p < 0.05): 56%; Oedema inhibition ([1]; 0.1 mg./kg. p.o., p < 0.05): 45%; Haemorrhagic injury ([1]; 1.0 mg./kg. p.o.): 5 ± 1.5 mm; Oedema ([1]; 1.0 mg./kg. p.o., N 12): 72 ± 28 mg; Haemorrhagic injury inhibition ([1]; 1.0 mg./kg. p.o., p < 0.01): 96%; Haemorrhagic injury ([1]; 10.0 mg./kg. p.o.): 6 ± 3 mm; Oedema ([1]; 10.0 mg./kg. p.o., N 12): 22 ± 12 mg; Haemorrhagic injury inhibition ([1]; 10.0 mg./kg. p.o., p < 0.01): 94%; Oedema inhibition ([1]; 10.0 mg./kg. p.o., p < 0.01): 95%; ED50 [1, 3]: 0.2 mg/kg; ED50 [1, 4]: 0.1 mg/kg; gastrocytoprotective activity after indomethacin pre-treatment ([1]; indomethacin pre-treatment): not eliminated by indomethacin pre-treatment; gastrocytoprotective activity, selectivity in words ([1]; versus gastric acid secretion inhibition): selective gastrocytoprotective activity; Secretion HCl inhibition (Gastric acid secretion; 5 mg./kg. p.o.): 37%; Secretion HCl/4 hours (Gastric acid secretion; 5 mg./kg. p.o., N 5): 357 ± 35 μmol/100 g body weight; Secretion HCl inhibition (Gastric acid secretion; 6 mg./kg. i.p.): 11%; Secretion HCl/4 hours (Gastric acid secretion; 6 mg./kg. i.p., N 5): 505 ± 29 μmol/100 g body weight; Secretion HCl inhibition (Gastric acid secretion; 10 mg./kg. p.o.): 38%; Secretion HCl/4 hours (Gastric acid secretion; 10 mg./kg. p.o., N 15): 350 ± 38 μmol/100 g body weight; Secretion HCl/4 hours (Gastric acid secretion; 12 mg./kg. i.p., N 10): 200 ± 30 μmol/100 g body weight; Secretion HCl inhibition (Gastric acid secretion; 12 mg./kg. i.p., p < 0.01): 65%; Secretion HCl inhibition (Gastric acid secretion; 20 mg./kg. p.o.): 34%; Secretion HCl/4 hours (Gastric acid secretion; 20 mg./kg. p.o., N 15): 372 ± 40 μmol/100 g body weight; Secretion HCl inhibition (Gastric acid secretion; 25 mg./kg. i.p.): 100%; Secretion HCl/4 hours (Gastric acid secretion; 25 mg./kg. i.p., N 5): 0 μmol/100 g body weight; Secretion HCl/4 hours (Gastric acid secretion; 40 mg./kg. p.o., N 5): 124 ± 27 μmol/100 g body weight; Secretion HCl inhibition (Gastric acid secretion; 40 mg./kg. p.o., p < 0.01): 70%; higher dose at which gastric acid secretion inhibiting activity was observed (relative to gastrocytoprotective dose) (Gastric acid secretion; selectivity of cytoprotection over acid secretion inhibition): about 500 times; Intestinal ulcer, tensile strength 24 hours after indomethacin treatment (Intestinal ulcer; [5]): 162 ± 14 mmHg; Intestinal ulcer, tensile strength 24 hours after indomethacin treatment (Intestinal ulcer; [6]): 198 ± 9 mmHg; Antral ulcer, ulceration index (Antral ulcer; [5]): 18.9 mm^2 /stomach; Antral ulcer, rats having no ulcer (Antral ulcer; indomethacin 15 mg./kg. p.o. with 5 mg./kg. p.o. test compound, N 15): 3; Antral ulcer, ulceration index (Antral ulcer; [6]): 4.0 mm^2 /stomach; Antral ulcer, rats having no ulcer (Antral ulcer; [7]): 12; Inhibition (of ulceration) ([2]; aspirin 100 + test compound 1 mg./kg.p.o.): 38%; Ulcer/Stomach ([2]; aspirin 100 + test compound 1 mg./kg.p.o., N 20): 9.4 + 4.1; Inhibition (of ulceration) ([2]; aspirin 100 + test compound 2 mg./kg.p.o.): 47%; Ulcer/Stomach ([2]; aspirin 100 + test compound 2 mg./kg.p.o., N 10): 8.0 + 3.0; Inhibition (of ulceration) ([2]; aspirin 100 + test compound 10 mg./kg.p.o.): 76%; Ulcer/Stomach ([2]; aspirin 100 + test compound 10 mg./kg.p.o., N 10): 3.7 + 4.5

Question: With `CCCc1cc(C(=O)c2ccccc2)cc(SCCN)n1` [Compound E, 2-[(2-aminoethyl)-thio]-4-benzoyl-6-propylpyridine.2 HCl] as the compound, how does the ED50 [1, 3] read?
Answer: 20 mg/kg

Question: What about the ED50 [1, 4] of the same compound?
Answer: 25 mg/kg

Question: How did the ED50 [1, 3] turn out when `Cc1ccc(C)c(C(=O)c2cccnc2SCCN)c1` [D, 2-[(2-aminoethyl)-thio]-3-(2,5-dimethylbenzoyl)pyridine.HCl] was run?
Answer: 10 mg/kg

Question: What about the ED50 [1, 4] of the same compound?
Answer: 10 mg/kg

Question: Which “Intestinal ulcer, tensile strength 24 hours after indomethacin treatment” value (Intestinal ulcer; [6]) does the source give for `CN1CCN(CC(=O)N2c3ccccc3C(=O)Nc3cccnc32)CC1` [Pirenzepine, reference compound] here?
Answer: 152 ± 8 mmHg

Question: What about the “Antral ulcer, ulceration index” value (Antral ulcer; [6]) of the same compound?
Answer: 12.0 mm^2 /stomach

Question: And the “Antral ulcer, rats having no ulcer” value (Antral ulcer; [7])?
Answer: 5

Question: How did the Haemorrhagic injury ([1]; 25 mg./kg. p.o.) turn out when `CN/C(=N/CCSCc1nc[nH]c1C)NC#N` [cimetidine, reference compound] was run?
Answer: 82 ± 21 mm

Question: What about the Haemorrhagic injury inhibition ([1]; 25 mg./kg. p.o.) of the same compound?
Answer: 2%

Question: And the Oedema ([1]; 25 mg./kg. p.o., N 8)?
Answer: 441 ± 82 mg

Question: And the Haemorrhagic injury ([1]; 100 mg./kg. p.o.)?
Answer: 42 ± 13 mm

Question: What about the Haemorrhagic injury inhibition ([1]; 100 mg./kg. p.o.) of the same compound?
Answer: 46%

Question: And the Oedema inhibition ([1]; 100 mg./kg. p.o.)?
Answer: 21%

Question: What about the Oedema ([1]; 100 mg./kg. p.o., N 8) of the same compound?
Answer: 301 ± 42 mg

Question: What about the “Intestinal ulcer, tensile strength 24 hours after indomethacin treatment” value (Intestinal ulcer; [8]) of the same compound?
Answer: 161 ± 8 mmHg

Question: And the “Antral ulcer, ulceration index” value (Antral ulcer; [8])?
Answer: 14.7 mm^2 /stomach

Question: And the “Antral ulcer, rats having no ulcer” value (Antral ulcer; indomethacin 15 mg./kg. p.o. with 50 mg./kg. p.o. test compound, N 10)?
Answer: 2
